Measurements taken from the supplement of paper PMC5908809.

Legend:
[1] = test system: normal NK cells expanded with K562-aAPC; assay: percent inhibition of viability; higher = more inhibition; details: 72 h, IL-2 2.5 ng/mL
Method: (§1)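 Drug sensitivity and resistance testing on K562-aAPC-expanded normal NK cells: 5 concentrations (10-fold steps over a 10,000-fold range), 72 h at 37 °C, viability by CellTiter-Glo normalised to DMSO and benzethonium chloride controls; DSS from the fitted curve.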

DERL-7 (IL-2 2.5 ng/mL) [2] = assay: as above; details: 72 h
IMC-1 (IL-2 20 ng/mL) [3] = assay: as above; details: 72 h
KAI3 (IL-2 2.5 ng/mL) [4] = assay: as above; details: 72 h
KHYG-1 (IL-2 2.5 ng/mL) [5] = assay: as above; details: 72 h
NK-92 (IL-2 2.5 ng/mL) [6] = assay: as above; details: 72 h
NK-YS (IL-2 2.5 ng/mL) [7] = assay: as above; details: 72 h
NKL (IL-2 2.5 ng/mL) [8] = assay: as above; details: 72 h
SNK-6 (IL-2 2.5 ng/mL) [9] = assay: as above; details: 72 h
YT (IL-2 2.5 ng/mL) [10] = assay: as above; details: 72 h
[11] = test system: normal primary NK cells, pool 1 (3 donors) (IL-2 2.5 ng/mL); assay: as above; details: 72 h
[12] = test system: normal primary NK cells, pool 1 (3 donors), resting (IL-2 0 ng/mL); assay: as above; details: 72 h
[13] = test system: normal primary NK cells, pool 2 (3 donors) (IL-2 2.5 ng/mL); assay: as above; details: 72 h
[14] = test system: normal primary NK cells, pool 3 (3 donors) (IL-2 2.5 ng/mL); assay: as above; details: 72 h
[15] = test system: normal NK cells expanded with K562-aAPC; assay: drug sensitivity score (DSS) (DSS units); higher = more sensitive; extreme values may be limits of the assay; details: 72 h; IL-2 2.5 ng/mL
Method: as §1

DERL-7 (IL-2 2.5 ng/mL) [16] = assay: as above; details: 72 h
IMC-1 (IL-2 20 ng/mL) [17] = assay: as above; details: 72 h
KAI3 (IL-2 2.5 ng/mL) [18] = assay: as above; details: 72 h
KHYG-1 (IL-2 2.5 ng/mL) [19] = assay: as above; details: 72 h
NK-92 (IL-2 2.5 ng/mL) [20] = assay: as above; details: 72 h
NK-YS (IL-2 2.5 ng/mL) [21] = assay: as above; details: 72 h
NKL (IL-2 2.5 ng/mL) [22] = assay: as above; details: 72 h
SNK-6 (IL-2 2.5 ng/mL) [23] = assay: as above; details: 72 h
YT (IL-2 2.5 ng/mL) [24] = assay: as above; details: 72 h
[25] = test system: normal primary NK cells, pool 1 (3 donors) (IL-2 2.5 ng/mL); assay: as above; details: 72 h
[26] = test system: normal primary NK cells, pool 1 (3 donors), resting (IL-2 0 ng/mL); assay: as above; details: 72 h
[27] = test system: normal primary NK cells, pool 2 (3 donors) (IL-2 2.5 ng/mL); assay: as above; details: 72 h
[28] = test system: normal primary NK cells, pool 3 (3 donors) (IL-2 2.5 ng/mL); assay: as above; details: 72 h

CN[C@@H]1C[C@H]2O[C@@](C)([C@@H]1OC)n1c3ccccc3c3c4c(c5c6ccccc6n2c5c31)C(=O)N[C@H]4O [UCN-01] (max concentration tested 10000 nM)
percent inhibition of viability [%]
Details | 1 nM | 10 nM | 100 nM | 1000 nM | 10000 nM
DERL-7 (IL-2 2.5 ng/mL) [2] | 8.29 | 22.9 | 82.2 | 101 | 101
IMC-1 (IL-2 20 ng/mL) [3] | -7.27 | -2.85 | -13.4 | 100 | 101
KAI3 (IL-2 2.5 ng/mL) [4] | 6.37 | 19.1 | 95.1 | 105 | 107
KHYG-1 (IL-2 2.5 ng/mL) [5] | 4.96 | 7.2 | 103 | 110 | 108
NK-92 (IL-2 2.5 ng/mL) [6] | -0.38 | 4.42 | 89.2 | 107 | 109
NK-YS (IL-2 2.5 ng/mL) [7] | 2.38 | 1.74 | 83.6 | 96.9 | 105
NKL (IL-2 2.5 ng/mL) [8] | -2.69 | 2.69 | 78.1 | 90.6 | 106
SNK-6 (IL-2 2.5 ng/mL) [9] | -11 | 34 | 92.7 | 100 | 101
YT (IL-2 2.5 ng/mL) [10] | 4.61 | 17.4 | 28.1 | 93 | 108
[1] | 0.67 | 13.9 | 76.9 | 100 | 101
[11] | 4.79 | 0.37 | 51.1 | 95.7 | 99.2
[12] | -5.95 | 4.23 | 23.4 | 84.6 | 92.1
[13] | -7.23 | 6.32 | 58.8 | 95.4 | 99
[14] | -5.75 | 2.95 | 40.4 | 97.2 | 101

Details | drug sensitivity score
DERL-7 (IL-2 2.5 ng/mL) [16] | 30.4
IMC-1 (IL-2 20 ng/mL) [17] | 17.1
KAI3 (IL-2 2.5 ng/mL) [18] | 32.4
KHYG-1 (IL-2 2.5 ng/mL) [19] | 31.8
NK-92 (IL-2 2.5 ng/mL) [20] | 29.2
NK-YS (IL-2 2.5 ng/mL) [21] | 27.8
NKL (IL-2 2.5 ng/mL) [22] | 27.4
SNK-6 (IL-2 2.5 ng/mL) [23] | 34
YT (IL-2 2.5 ng/mL) [24] | 20.2
[15] | 28.5
[25] | 23.8
[26] | 18.3
[27] | 24.8
[28] | 22.5

O=c1ncn2nc(Sc3ccc(F)cc3F)ccc2c1-c1c(Cl)cccc1Cl [VX 745] (max concentration tested 10000 nM)
percent inhibition of viability [%]
Details | 1 nM | 10 nM | 100 nM | 1000 nM | 10000 nM
DERL-7 (IL-2 2.5 ng/mL) [2] | 0.51 | 2.58 | 3.17 | -1.44 | 23.6
IMC-1 (IL-2 20 ng/mL) [3] | -8.82 | -3.76 | -6.12 | 4.33 | 24.7
KAI3 (IL-2 2.5 ng/mL) [4] | 3.09 | 5.9 | 15.3 | 25.4 | 59.7
KHYG-1 (IL-2 2.5 ng/mL) [5] | -5.86 | -3.96 | -4.73 | 1.64 | 25
NK-92 (IL-2 2.5 ng/mL) [6] | -11.3 | -20.3 | -9.85 | 11 | 37.8
NK-YS (IL-2 2.5 ng/mL) [7] | -7.93 | -3.47 | 3.09 | 15.2 | 47.7
NKL (IL-2 2.5 ng/mL) [8] | -15.3 | -9.23 | 3.92 | 36 | 58.3
SNK-6 (IL-2 2.5 ng/mL) [9] | -5.31 | -15.8 | -5.14 | 3.14 | 26.2
YT (IL-2 2.5 ng/mL) [10] | -3.02 | -3.06 | -2.2 | 8.23 | 29.8
[1] | -6.57 | -6.69 | -2.69 | 10.6 | 7.59
[11] | 1.17 | 8.88 | 0.28 | 10.7 | 23.3
[12] | 13.8 | 12.2 | 18.8 | 9.48 | 37.9
[13] | -5.75 | -3.08 | 5.63 | 1.25 | 19.1
[14] | -1.25 | -5.79 | 8.52 | -4.71 | 13.8

Details | drug sensitivity score
DERL-7 (IL-2 2.5 ng/mL) [16] | 0.75
IMC-1 (IL-2 20 ng/mL) [17] | 1.58
KAI3 (IL-2 2.5 ng/mL) [18] | 6.91
KHYG-1 (IL-2 2.5 ng/mL) [19] | 1.17
NK-92 (IL-2 2.5 ng/mL) [20] | 3.48
NK-YS (IL-2 2.5 ng/mL) [21] | 4.52
NKL (IL-2 2.5 ng/mL) [22] | 7.53
SNK-6 (IL-2 2.5 ng/mL) [23] | 1.52
YT (IL-2 2.5 ng/mL) [24] | 2.49
[15] | 0.12
[25] | 1.96
[26] | 5.57
[27] | 0.67
[28] | 0.07
